Laboratory results reported in PMC10794144, “A novel antibiotic class targeting the lipopolysaccharide transporter” (Nature, 2024).
Like-named read-outs stand apart in the source and are kept apart here.

Tests used:
[1] = tested on: S. aureus ATCC 29213; assay: organism not typed
Procedure: MIC determinations were performed using the broth microdilution method and in line with CLSI guidelines M07 and M100 (refs. [37],[38]). Bacterial inocula were prepared by diluting a 0.5 McFarland suspension in CAMHB or lysogeny broth (LB) specifically for A. baylyi isolates. […] MIC values of all of the tested antibiotics were read as the lowest compound concentration inhibiting bacterial growth by naked eye or beyond which the OD600 ceased to decrease.

[2] = target: T1, Xanthine oxidase (Bos taurus, UniProt P80457); assay: Off-target screening (CEREP); type: biochemical, bovine; conditions: 10 µM, duplicates; read-out: percent inhibition
T1 construct: purchased Eurofins CEREP SA
T1 sequence (P80457 whole entry): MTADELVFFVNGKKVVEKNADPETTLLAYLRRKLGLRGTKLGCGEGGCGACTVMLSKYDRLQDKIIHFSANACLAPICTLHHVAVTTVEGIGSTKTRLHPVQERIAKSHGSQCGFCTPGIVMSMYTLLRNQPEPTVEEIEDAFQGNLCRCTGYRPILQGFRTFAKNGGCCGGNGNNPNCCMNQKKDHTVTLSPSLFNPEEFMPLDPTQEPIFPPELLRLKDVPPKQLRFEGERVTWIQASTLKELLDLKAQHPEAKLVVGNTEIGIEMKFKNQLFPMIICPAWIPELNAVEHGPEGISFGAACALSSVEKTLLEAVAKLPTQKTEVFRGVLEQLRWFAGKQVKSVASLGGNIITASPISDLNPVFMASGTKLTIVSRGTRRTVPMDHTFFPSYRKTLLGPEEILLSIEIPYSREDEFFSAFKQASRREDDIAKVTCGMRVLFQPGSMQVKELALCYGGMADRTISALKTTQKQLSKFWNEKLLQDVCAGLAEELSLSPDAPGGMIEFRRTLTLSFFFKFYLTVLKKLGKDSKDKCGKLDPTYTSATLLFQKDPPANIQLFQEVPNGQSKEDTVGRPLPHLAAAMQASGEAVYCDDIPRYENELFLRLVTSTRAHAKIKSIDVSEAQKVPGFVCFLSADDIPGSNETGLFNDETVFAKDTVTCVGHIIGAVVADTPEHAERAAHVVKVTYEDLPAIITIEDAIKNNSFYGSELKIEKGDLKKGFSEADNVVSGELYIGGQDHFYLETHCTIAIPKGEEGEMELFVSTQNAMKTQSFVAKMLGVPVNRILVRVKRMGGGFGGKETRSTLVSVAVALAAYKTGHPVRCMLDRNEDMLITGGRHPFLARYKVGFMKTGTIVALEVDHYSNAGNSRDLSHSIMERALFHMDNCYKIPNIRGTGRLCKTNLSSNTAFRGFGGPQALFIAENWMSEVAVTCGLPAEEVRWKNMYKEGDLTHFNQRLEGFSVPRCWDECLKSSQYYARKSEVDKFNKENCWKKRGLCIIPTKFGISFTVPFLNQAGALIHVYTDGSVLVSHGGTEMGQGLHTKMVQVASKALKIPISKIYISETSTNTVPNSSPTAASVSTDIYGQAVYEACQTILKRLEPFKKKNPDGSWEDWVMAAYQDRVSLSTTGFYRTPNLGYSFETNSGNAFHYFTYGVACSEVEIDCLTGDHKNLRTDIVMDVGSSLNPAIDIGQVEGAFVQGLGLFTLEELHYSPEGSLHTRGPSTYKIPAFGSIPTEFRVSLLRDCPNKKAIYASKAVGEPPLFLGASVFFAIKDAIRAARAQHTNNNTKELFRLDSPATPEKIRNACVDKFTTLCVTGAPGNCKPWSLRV
Procedure: (§1) Supplementary Table 1 │ Off-target activity screening f or MCP compou nds […]
(§2) The assays given in the table above were conducted at Eurofins CEREP S A (Celle-Lévescault, France) and were run as single point measurements in duplicates in the presence of 10 µ M of the test compound and reported as percent inhibition of the radioligand signal or control enzymatic activity. n.d., not

[3] = target: CYP2C9 (Homo sapiens, UniProt P11712); assay: CYP inhibition; type: in vitro ADME
CYP2C9, sequence (P11712 whole entry): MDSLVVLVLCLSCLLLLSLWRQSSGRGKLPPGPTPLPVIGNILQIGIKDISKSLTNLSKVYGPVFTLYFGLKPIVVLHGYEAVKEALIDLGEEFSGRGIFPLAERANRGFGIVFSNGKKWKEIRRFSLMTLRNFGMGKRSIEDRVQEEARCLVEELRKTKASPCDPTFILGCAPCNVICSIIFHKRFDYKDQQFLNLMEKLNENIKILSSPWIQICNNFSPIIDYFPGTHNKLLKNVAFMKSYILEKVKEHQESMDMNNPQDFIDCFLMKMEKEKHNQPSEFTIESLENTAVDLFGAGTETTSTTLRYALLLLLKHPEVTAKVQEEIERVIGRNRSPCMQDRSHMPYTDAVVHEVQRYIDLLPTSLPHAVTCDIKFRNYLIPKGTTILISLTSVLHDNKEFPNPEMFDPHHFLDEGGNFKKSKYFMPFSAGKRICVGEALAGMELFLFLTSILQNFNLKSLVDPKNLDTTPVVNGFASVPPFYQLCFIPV

[4] = target: CYP2D6 (Homo sapiens, UniProt P10635); assay: CYP inhibition; type: in vitro ADME
CYP2D6, sequence (P10635 whole entry): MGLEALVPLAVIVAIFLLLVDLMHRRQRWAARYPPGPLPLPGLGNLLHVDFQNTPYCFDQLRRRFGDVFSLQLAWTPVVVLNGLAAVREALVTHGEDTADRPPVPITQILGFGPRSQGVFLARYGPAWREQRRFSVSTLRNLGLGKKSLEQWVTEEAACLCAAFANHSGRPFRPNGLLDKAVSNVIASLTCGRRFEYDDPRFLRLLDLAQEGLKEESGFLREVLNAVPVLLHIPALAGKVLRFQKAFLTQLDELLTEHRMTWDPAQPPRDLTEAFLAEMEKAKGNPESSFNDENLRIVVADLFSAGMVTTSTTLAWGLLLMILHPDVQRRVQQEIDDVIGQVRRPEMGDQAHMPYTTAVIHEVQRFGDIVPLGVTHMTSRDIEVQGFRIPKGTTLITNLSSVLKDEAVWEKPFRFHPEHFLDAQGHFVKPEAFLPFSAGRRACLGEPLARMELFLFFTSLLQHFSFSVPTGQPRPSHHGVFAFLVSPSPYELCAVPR

[5] = target: T2, Dopamine D2 receptor (Homo sapiens, UniProt P14416); assay: Off-target screening (CEREP); type: binding; conditions: 10 µM, duplicates; read-out: percent inhibition
T2 construct: purchased Eurofins CEREP SA
T2 sequence (P14416 whole entry): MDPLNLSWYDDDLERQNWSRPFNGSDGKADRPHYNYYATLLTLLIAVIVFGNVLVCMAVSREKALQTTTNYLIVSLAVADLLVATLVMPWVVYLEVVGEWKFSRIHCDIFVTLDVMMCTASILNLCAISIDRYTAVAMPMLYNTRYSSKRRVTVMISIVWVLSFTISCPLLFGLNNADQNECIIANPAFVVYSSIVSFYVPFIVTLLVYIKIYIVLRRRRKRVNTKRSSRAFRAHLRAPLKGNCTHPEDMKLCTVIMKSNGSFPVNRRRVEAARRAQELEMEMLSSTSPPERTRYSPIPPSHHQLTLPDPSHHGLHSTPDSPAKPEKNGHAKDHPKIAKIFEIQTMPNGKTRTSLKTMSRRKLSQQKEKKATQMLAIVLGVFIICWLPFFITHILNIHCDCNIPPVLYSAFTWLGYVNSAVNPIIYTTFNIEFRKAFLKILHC
Procedure: as §1, §2

[6] = target: Glycine receptor, strychnine insensitive (Rattus norvegicus, UniProt P35439); assay: Off-target screening (CEREP); type: binding; conditions: read-out: percent inhibition
Glycine receptor, strychnine insensitive, sequence (P35439 394-800): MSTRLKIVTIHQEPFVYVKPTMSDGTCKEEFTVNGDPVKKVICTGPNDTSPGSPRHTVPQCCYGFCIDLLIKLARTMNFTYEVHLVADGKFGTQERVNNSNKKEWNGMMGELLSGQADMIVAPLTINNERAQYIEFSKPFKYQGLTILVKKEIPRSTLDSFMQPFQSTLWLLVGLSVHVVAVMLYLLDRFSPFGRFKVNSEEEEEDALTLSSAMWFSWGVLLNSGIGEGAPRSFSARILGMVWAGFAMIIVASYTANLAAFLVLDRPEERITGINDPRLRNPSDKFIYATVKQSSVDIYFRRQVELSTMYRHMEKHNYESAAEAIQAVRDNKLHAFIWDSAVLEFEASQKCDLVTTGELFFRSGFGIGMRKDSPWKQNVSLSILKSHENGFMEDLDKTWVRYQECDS
Procedure: as §1, §2

[7] = target: T3, Muscarinic receptor M1 (Homo sapiens, UniProt P11229); assay: Off-target screening (CEREP); type: binding; conditions: 10 µM, duplicates; read-out: percent inhibition
T3 construct: purchased Eurofins CEREP SA
T3 sequence (P11229 1-460): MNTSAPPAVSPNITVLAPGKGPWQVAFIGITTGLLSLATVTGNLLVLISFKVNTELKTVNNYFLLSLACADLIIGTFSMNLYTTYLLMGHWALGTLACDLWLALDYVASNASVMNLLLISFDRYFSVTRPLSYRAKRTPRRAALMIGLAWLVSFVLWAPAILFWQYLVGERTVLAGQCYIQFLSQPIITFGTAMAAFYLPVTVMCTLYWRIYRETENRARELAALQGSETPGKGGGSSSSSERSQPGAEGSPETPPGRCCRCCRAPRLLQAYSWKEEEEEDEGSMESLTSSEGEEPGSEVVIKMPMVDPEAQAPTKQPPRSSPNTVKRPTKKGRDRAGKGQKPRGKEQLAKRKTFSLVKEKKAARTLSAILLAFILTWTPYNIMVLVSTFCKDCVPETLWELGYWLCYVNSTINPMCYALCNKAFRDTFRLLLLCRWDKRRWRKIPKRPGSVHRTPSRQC
Procedure: as §1, §2

[8] = target: T4, 5HT2A (Homo sapiens, UniProt P28223); assay: Off-target screening (CEREP); type: binding; conditions: 10 µM, duplicates; read-out: percent inhibition
T4 construct: purchased Eurofins CEREP SA
T4 sequence (P28223 whole entry): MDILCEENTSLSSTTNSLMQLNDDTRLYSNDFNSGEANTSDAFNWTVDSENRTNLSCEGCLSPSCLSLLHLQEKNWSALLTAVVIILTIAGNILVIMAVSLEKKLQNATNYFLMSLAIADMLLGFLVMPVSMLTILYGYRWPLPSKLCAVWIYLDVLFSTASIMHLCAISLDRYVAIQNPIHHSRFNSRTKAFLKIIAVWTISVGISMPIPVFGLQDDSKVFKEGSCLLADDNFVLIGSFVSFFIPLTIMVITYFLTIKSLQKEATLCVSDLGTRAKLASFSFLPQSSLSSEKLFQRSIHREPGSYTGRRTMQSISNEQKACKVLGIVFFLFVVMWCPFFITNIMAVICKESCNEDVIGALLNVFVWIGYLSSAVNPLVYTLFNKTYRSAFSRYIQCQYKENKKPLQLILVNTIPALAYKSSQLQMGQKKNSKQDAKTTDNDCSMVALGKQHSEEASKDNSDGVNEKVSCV
Procedure: as §1, §2

[9] = Micronucleus test (MNT)
[10] = Rat plasma precipitation assay; conditions: Wistar rat heparin plasma 1:1 with compound in saline/PBS; absorbance difference OD362 ≥ 0.05; n = 1
Procedure: Whole blood was obtained from WISTAR rats and collected in 1.2 ml heparin tubes for the preparation of heparin plasma. The tubes were then centrifuged for 5 min at 5,200g at room temperature to isolate the plasma supernatant. Test compounds were received as powder and solubilized at various concentrations in 0.9% aqueous sodium chloride solution and adjusted for pH with phosphate-buffered saline (PBS). The assay was conducted in 384-well plates. Rat plasma (10 µl) was added to 10 µl of the various compound solutions. A total of 10 µl of vehicle (0.9% aqueous sodium chloride solution, PBS) added to the plasma was used as a negative control. The absorption was measured at 362 nm. Raw data were obtained as absorbance data. The difference between the absorbance of the sample and the mean absorbance of the vehicle was calculated. The minimum effect concentration was defined as the lowest concentration giving an absorbance difference of OD362 ≥ 0.05.

[11] = Fraction unbound in mouse plasma; type: in vitro ADME
[12] = tested on: C. albicans ATCC 90028; conditions: 100%
[13] = Staphylococcus aureus, ATCC29213, CAMHB, mode of at least three replicates (RO7036668 one replicate)

CN1C(=O)[C@H](CCCN)NC(=O)[C@H](CCCN)NCc2ccccc2Sc2ccccc2CNC(=O)[C@@H]1Cc1c[nH]c2ccccc12 [RO7036668]
26%: inhibition at 10 µM [7]
32 µg/mL: MIC [1, 13]
32 to 64 µg/mL: MIC ([1]; Gram-positive bacteria and yeast)
> 50 µM: CYP inh. (2C9) [3] | CYP inh. (2D6) [4]
-2%: inhibition at 10 µM [8]
-16%: inhibition at 10 µM [2]
74%: inhibition at 10 µM [5]
-27%: inhibition at 10 µM [6]

CN1C(=O)[C@H](CCCCN)NC(=O)[C@H](CCCN)NCc2cccnc2Sc2c(Cl)ccc(-c3ccc(C(=O)O)cc3)c2CNC(=O)[C@@H]1Cc1c[nH]c2ccccc12 [RO7202110]
10%: fu (m), fraction unbound in mouse plasma [11]
Negative: MNT [9]
4%: inhibition at 10 µM [8]
0.39 mg/mL: Threshold concentration for precipitation [10]
> 64 µg/mL: MIC [1, 13]
>50 (3A4) >50 (2C9) >50 (2D6) μM: CYP inh. (2C9) [3] | CYP inh. (2D6) [4]
0%: inhibition at 10 µM [2]
28%: inhibition at 10 µM [5]
-25%: inhibition at 10 µM [6]
-6%: inhibition at 10 µM [7]

C[C@@H](O)[C@H]1C(=O)N2C(C(=O)O)=C(S[C@@H]3CN[C@H](C(=O)N(C)C)C3)[C@H](C)[C@H]12 [meropenem, reference compound]
0.25 µg/mL: MIC ([1]; Staphylococcus aureus, ATCC29213, read-out: MIC 100%, Study LGC286210, 100%)
0.12 µg/mL: MIC [1, 13] | MIC ([1]; Staphylococcus aureus, ATCC29213, read-out: MIC 100%, Study LGC277937, 100%) | MIC ([1]; Staphylococcus aureus, ATCC29213, read-out: MIC 100%, Study LGC281440, 100%) | MIC ([1]; Staphylococcus aureus, ATCC29213, read-out: MIC 100%, Study LGC282623, 100%) | MIC ([1]; Staphylococcus aureus, ATCC29213, read-out: MIC 100%, Study LGC283932, 100%) | MIC ([1]; Staphylococcus aureus, ATCC29213, read-out: MIC 100%, Study LGC284200, 100%) | MIC ([1]; Staphylococcus aureus, ATCC29213, read-out: MIC 100%, Study LGC284879, 100%) | MIC ([1]; Staphylococcus aureus, ATCC29213, read-out: MIC 100%, Study LGC285582, 100%) | MIC ([1]; Staphylococcus aureus, ATCC29213, read-out: MIC 100%, Study LGC293598, 100%) | MIC ([1]; Staphylococcus aureus, ATCC29213, read-out: MIC 100%, Study LGC295147, 100%) | MIC ([1]; Staphylococcus aureus, ATCC29213, read-out: MIC 100%, Study LGC299544, 100%) | MIC ([1]; Staphylococcus aureus, ATCC29213, read-out: MIC 100%, Study LGC301026, 100%) | MIC ([1]; Staphylococcus aureus, ATCC29213, read-out: MIC 100%, Study ROC006, 100%) | MIC ([1]; Staphylococcus aureus, ATCC29213, read-out: MIC 100%, Study ROC007, 100%) | MIC ([1]; Staphylococcus aureus, ATCC29213, read-out: MIC 100%, Study ROC008, 100%) | MIC ([1]; Staphylococcus aureus, ATCC29213, read-out: MIC 100%, Study ROC013, 100%)
≤ 0.06 µg/mL: MIC ([1]; Staphylococcus aureus, ATCC29213, read-out: MIC 100%, Study LGC279800, 100%) | MIC ([1]; Staphylococcus aureus, ATCC29213, read-out: MIC 100%, Study LGC282160, 100%) | MIC ([1]; Staphylococcus aureus, ATCC29213, read-out: MIC 100%, Study LGC294355, 100%) | MIC ([1]; Staphylococcus aureus, ATCC29213, read-out: MIC 100%, Study LGC296813, 100%) | MIC ([1]; Staphylococcus aureus, ATCC29213, read-out: MIC 100%, Study LGC308175, 100%) | MIC ([1]; Staphylococcus aureus, ATCC29213, read-out: MIC 100%, Study ROC003, 100%) | MIC ([1]; Staphylococcus aureus, ATCC29213, read-out: MIC 100%, Study ROC004, 100%) | MIC ([1]; Staphylococcus aureus, ATCC29213, read-out: MIC 100%, Study ROC005, 100%) | MIC ([1]; Staphylococcus aureus, ATCC29213, read-out: MIC 100%, Study ROC009, 100%) | MIC ([1]; Staphylococcus aureus, ATCC29213, read-out: MIC 100%, Study ROC010, 100%) | MIC ([1]; Staphylococcus aureus, ATCC29213, read-out: MIC 100%, Study ROC012, 100%)
>64 µg/mL: MIC 100% ([12]; Study LGC277937) | MIC 100% ([12]; Study LGC279800) | MIC 100% ([12]; Study LGC281440) | MIC 100% ([12]; Study LGC282160) | MIC 100% ([12]; Study LGC282623) | MIC 100% ([12]; Study LGC283932) | MIC 100% ([12]; Study LGC284200) | MIC 100% ([12]; Study LGC284879) | MIC 100% ([12]; Study LGC285582) | MIC 100% ([12]; Study LGC286210) | MIC 100% ([12]; Study LGC293598) | MIC 100% ([12]; Study LGC294355) | MIC 100% ([12]; Study LGC295147) | MIC 100% ([12]; Study LGC296813) | MIC 100% ([12]; Study LGC299544) | MIC 100% ([12]; Study LGC301026) | MIC 100% ([12]; Study LGC308175) | MIC 100% ([12]; Study ROC003) | MIC 100% ([12]; Study ROC004) | MIC 100% ([12]; Study ROC005) | MIC 100% ([12]; Study ROC006) | MIC 100% ([12]; Study ROC008) | MIC 100% ([12]; Study ROC009) | MIC 100% ([12]; Study ROC010) | MIC 100% ([12]; Study ROC013)
